Earlier results as cited in US20240390871A1, “Production of encapsulated nanoparticles at high volume fractions” (iCeutica Pty Ltd., priority 2009, published 2024).

Details: previous animal studies; reducing the size of metaxalone

For `Cc1cc(C)cc(OCC2CNC(=O)O2)c1` (stereo not shown) [metaxalone], the “rates of absorption and overall bioavailability (as measured by AUC)” value is given as “much higher rates of absorption and overall bioavailability”.
